Patent US12311136B2, “Using alternating electric fields to increase permeability of the blood brain barrier” (Novocure GmbH, priority 2020, dated 2025)
Each block holds one molecule with its values, some of them ahead of it.

Tests used:
Type in all cases: in vivo
rat brain (BBB) [1] = assay: DCE-MRI of Gadolinium contrast agent accumulation in rat brain; settings: for contrast agent accumulation in the brain tissue, injection 96 h after the fields were turned off: 72 hours fields followed by 96 hours without fields vs control+96 h
Experimental: Yet another set of in vivo experiments was performed using Dynamic Contrast Enhanced MRI (DCE-MRI) with intravenous injection of Gadolinium contrast agent (Gd-DTPA, Magnetol, MW 547). In these experiments, test rats were treated with 100 kHz alternating electric fields for 72 h, and control rats were not treated with alternating electric fields for the same period of time. After this 72 h period, the alternating electric field was turned off, the rats were anesthetized, and a series of 60 T1w MRI scans (each of the scans having a duration of 28 seconds) was acquired. The gadolinium contrast agent was injected into the rat's tail vein during the 7th of these 60 scans.
The image analysis for each rat included (1) determining a baseline for each voxel by calculating the mean of the first six T1w MM scans for each voxel (i.e., the scans prior to the injection of the gadolinium); (2) computing voxel by voxel, the percent signal change (i.e., gadolinium accumulation) over time relative to the baseline; (3) segmenting the brain into anterior, middle, and posterior segments; (4) generating for each of the three segments the mean percent signal change with respect to the baseline over all the voxels in the respective segment and then (5) averaging 4 consecutive time points (i.e. 4 scans) together. Finally, the data from all of the rats within any given group were averaged together.
To test whether this increase in permeability of the BBB was temporary, the same test conditions were repeated, but followed with an additional 96 hours without alternating electric fields. After this 96 hour period, a series of 60 T1w MRI scans (each of the scans having a duration of 28 seconds) was acquired using the same procedure described above (including the gadolinium injection). The results of this portion of the DCE-MRI experiment for each of the three segments of the brain are also depicted in FIG. 8. […] From this we can conclude that the permeability of the BBB returns to normal after the alternating electric fields are discontinued.
The relationship between the intensity of the alternating electric fields and the impact of those fields on BBB integrity and permeability was also apparent from in vivo experiments in rats using serial dynamic contrast-enhanced (DCE) MM to measure gadolinium (Gd) uptake after 100 kHz alternating electric fields were applied for 72 hours. The rat's brains were segmented into three regions (anterior, posterior, and middle), and simulations of the alternating electric fields delivery to those three regions yielded field strengths of 1.5±0.6 V/cm RMS, 2.1±1.2 V/cm RMS, and 2.7±1.7 V/cm RMS respectively. […] These findings also indicate that the cells' response to alternating electric fields depends on the intensity of the fields.

rat brain (BBB) [2] = assay: Evans Blue (EB) accumulation in rat brain after alternating electric fields
Text: A set of in vivo experiments on rats was also run to quantify the increase in vessel permeability caused by exposure to the alternating electric fields. These experiments used Evans Blue (EB) dye, which is an azo dye that has a very high affinity for serum albumin (molecule size ˜69 kDa). Because of its large molecule size, serum albumin will ordinarily not be able to get past the BBB.
This was accomplished by shaving each rat's head, positioning a first pair of capacitively coupled electrodes on the top and bottom of the rat's head, and positioning a second pair of capacitively coupled electrodes on the left and right sides of the rat's head. A 100 kHz AC voltage was then applied between the top and bottom electrodes for 1 second, followed by a 100 kHz AC voltage applied between the right and left electrodes for 1 second, in a repeating sequence.
Under the conditions indicated in Table 1 and for the times indicated on Table 1, EB was injected intravenously into the tail vein under anesthesia (Once injected, EB immediately binds to Albumin), and the EB was allowed to circulate for 2 hours in all cases. The following steps were then performed: (a) intracardiac perfusion with saline; (b) brains are sliced in four pieces with a brain slicer; (c) pieces were photographed to localize staining and weighted; (d) EB extraction after tissue homogenization with TCA 50% (1:3) and centrifuge and (e) EB quantification at 610 nm. Results are given as μg EB per g tissue.
During the experiment, two animals from group 2 and one animal from group 4 were excluded (disrupted treatment, failure to inject EB into the tail vein). There were no differences between the animals treated with alternating electric fields (groups 1 and 2) and therefore these animals were grouped together. Similarly, there were no differences between sham heat and control animals (groups 3 and 4) and therefore these animals were grouped together.
EB accumulation in these four specific sections was then measured. In addition, a computer simulation was performed to determine the field strength in each of these four sections. […]

GBM F98 cells [3] = assay: Paclitaxel plus alternating electric fields in rat GBM, Ki67/DAPI cell proliferation; settings: 25 mg/kg PTX i.p. after 72 hours 100 kHz fields; day 13; vs alternating electric fields only
Experimental: (§1) Another set of in vivo experiments was performed to determine whether paclitaxel (PTX, which is a drug that ordinarily cannot traverse the BBB) can make it across the BBB when the subject is treated with alternating electric fields. In one of these experiments, glioblastoma was induced in rats by injecting them orthotopically with GBM F98 cells on day 0 of the experiment. On day 6, a first set of MRI scans of each rat's brains was obtained. Alternating electric fields at 100 kHz were applied to all the rats on days 7 through 10. On day 10 (i.e., after applying the fields for 72 hours), some of the rats were injected i.p. with 25 mg/kg PTX, while other rats were not injected. Subsequently, on day 13 (i.e., 3 days post PTX administration), a second set of MRI scans of each rat's brain was obtained. Ki67 (red) and DAPI (blue) staining was evaluated for the test and control rats.

GBM F98 cells [4] = assay: Paclitaxel plus alternating electric fields in rat GBM, fold increase of tumor volume; settings: 15 mg/kg PTX with 100 kHz fields, day 15, vs heat only
Experimental: as §1
A similar experiment using a 15 mg/kg dose of PTX was performed, except that instead of quantifying the Ki67/DAPI ratio on day 13, MRI scans and post mortem tissue sections were used to determine the fold increase of the tumor volume on day 15. The tumor volumes from these experiments are depicted in FIG. 11. […] And the inventors have concluded that the alternating electric fields allow the PTX (or metabolites thereof) to cross the BBB.

SMILES: O=C([O-])CN(CCN(CC(=O)[O-])CC(=O)O)CCN(CC(=O)[O-])CC(=O)O.[Gd+3] [Gd-DTPA]
Gd signal enhancement in the middle and posterior brain (rat brain (BBB) [1]; 100 kHz fields 72 hours, about 10 minutes after Gd injection, vs control rats): significantly increased signal enhancement
Gd accumulation in the anterior part of the brain (rat brain (BBB) [1]; 100 kHz fields 72 hours, lower field intensities in this region): no significant Gd accumulation
contrast agent accumulation in the brain tissue (DCE-MRI percent signal change) (rat brain (BBB) [1]; 100 kHz fields 72 h vs control rats, anterior, middle, posterior segments): significantly higher than in the control rats
contrast agent accumulation in the brain tissue, injection 96 h after the fields were turned off (rat brain (BBB) [1]; listed as Gd): no significant accumulation of Gd
contrast agent accumulation in the brain tissue, injection 96 h after the fields were turned off (rat brain (BBB) [1]; listed as contrast agent): not significantly different from the control rats
Gd accumulation in control rats (rat brain (BBB) [1]; rats not treated using alternating electric fields): No significant Gd accumulation
spatial distribution of Gd enhancement (rat brain (BBB) [1]; test rats (100 kHz fields 72 h), 20 to 23 minutes post-contrast administration): distributed in the whole brain

average EB accumulation in the rat brain, averaged over all four sections 1-4 (rat brain (BBB) [2]; 100 kHz fields 72 hours vs sham heat/control, p<0.05): higher accumulation of EB
EB accumulation, brain sections 1, 2 (frontal cerebrum) (rat brain (BBB) [2]; 100 kHz fields 72 h vs sham heat/control, EB i.v., circulating 2 hours, field strength highest): statistically significant increase
SMILES: Cc1cc(-c2ccc(/N=N/c3ccc4c(S(=O)(=O)O)cc(S(=O)(=O)O)c(N)c4c3O)c(C)c2)ccc1/N=N/c1ccc2c(S(=O)(=O)O)cc(S(=O)(=O)O)c(N)c2c1O [EB, Evans Blue]
EB accumulation, posterior brain sections (3, 4) (rat brain (BBB) [2]; 100 kHz fields 72 h vs sham heat/control, EB i.v., circulating 2 hours, field strength lower): smaller increase (that was not statistically significant)

SMILES: CC(=O)O[C@H]1C(=O)[C@@]2(C)[C@H]([C@H](OC(=O)c3ccccc3)[C@]3(O)C[C@H](OC(=O)[C@H](O)[C@@H](NC(=O)c4ccccc4)c4ccccc4)C(C)=C1C3(C)C)[C@]1(OC(C)=O)CO[C@@H]1C[C@@H]2O [PTX, paclitaxel]
cell proliferation in the GBM tumor (Ki67/DAPI ratio) (GBM F98 cells [3]): significant decrease in cell proliferation
fold tumor volume increase in the GBM tumor (GBM F98 cells [4]): significant decrease in the fold tumor volume increase
